Source: patent publication US12534497B2, “TEIPP peptide variant and use as a medicament” (Academisch Ziekenhuis Leiden (h.o.d.n. LUMC), priority 2019, dated 2026)
No end group written: not given here.

Assays:
TAP KO melanoma cells = test: Recognition of TAP-deficient versus wild-type melanoma cells by peptide-induced T cell cultures; assay type: cell-based, human
Excerpt: (A) Schematic overview of the tetramer pull-down approach and subsequent stimulation with short peptides. (B) Specificity of polyclonal […] peptide isolated T cells (upper panel) or […] peptide isolated T cells (bottom panel) as measured by staining of the T cells with two fluorescently labeled tetramers comprising the short natural sequence (horizontal axis) or the V-substituted peptide (vertical axis) by flow cytometry. (C) Geomeans for double tetramer positive cells on […] or […] peptide isolated T cells. (D) IFNy and GM-CSF production of polyclonal T cell bulks when stimulated with peptide pulsed EBV-JY cells as measured by ELISA. Means and SD are plotted of one out of three independent experiments. (E) Reactivity of these polyclonal T cell bulks when stimulated with wild-type and TAP knock out 518A2 melanoma cells (rendered TAP-deficient by CRISPR/CAS9 technology) or no tumor cells (control) as measured by indicated cytokine production using ELISA.
18-mer (also referred to as 18-meer) is SEQ ID NO: 4; 21-mer (also referred to as 21-meer) SEQ ID NO: 5; 24-mer (also referred to as 24-meer) is SEQ ID NO:6; and 27-mer (also referred to as 27-meer) is SEQ ID NO: 7. […]
To test the functionality of these T cell bulks, cytokine responses were measured towards both short peptides pulsed on immortalized HLA-A*0201 positive B cells (FIG. 2d). […]

[1] = tested on: LRPAP1-specific T cell clone
[2] = tested on: TCR-transduced CD8 T cells; test: Reactivity of TCR-transduced T cells to peptide pulsed EBV-JY cells (cytokine ELISA); assay type: cell-based, human; conditions: V-variant compared with S-variant peptide
Excerpt: (B) TCRαβ gene transduction into T cells from a healthy donor. The introduced genes contain the murine TCR-αβ domain which enhances correct pairing of transgenic alpha and beta chains. Expression of this domain is confirmed in TCR-transduced T cells (on the horizontal axis). (C) Staining of TCRαβ transduced CD8 T cells with fluorescently labeled tetramers comprising the short natural peptide sequence (left panel) or the V-substituted peptide (right panel). (D) Functional reactivity of tetramer-enriched TCR-transduced T cells to peptide pulsed EBV-JY cells as measured by indicated cytokine production using ELISA. Means and SD are depicted from one out of three experiments with similar outcome. […] TCR-transduced T cells were stimulated with either the wild type version of two different melanoma cell lines, or their TAP knock out (TAP KO) variants generated by CRISPR/CAS9 technology. […] T cells only served as control.
Platinum-Amphotropic retrovirus production (Plat-A) retroviral packing cells (Cell Biolabs) were used for retrovirus production. Plat-A cells were seeded in 6-well plates and incubated overnight until fully attached. Next, the cells were transfected with 2 μg pMP71_1A8 TCR vector using lipofectamine 2000. Retrovirus supernatant was collected on 24 h and 48 h after transfection, spun down to remove cells, and stored in −80° C. […]

LRPAP1-specific T cells = test: In vitro vaccination: SLP-loaded moDC co-cultured with tetramer-enriched autologous T cells, tetramer analysis; assay type: cell-based, human; conditions: 2 healthy blood donors stimulated 2-3 times with length variants
Protocol: In short, CD14 monocytes isolated from PBMC of healthy donors were differentiated into dendritic cells by culturing with GM-CSF and IL-4 for 6 days. On day 7, moDCs were plated in 96-well and incubated with 20 uM of V-SLP for 20 h. During the last 18 hours the DCs were matured with […] LPS. On day 8, the moDCs were washed and co-cultured with PBMC enriched for LRPAP1-specific T cells by […]-tetramers. (A) Schematic overview of the in vitro vaccination protocol using two V-variant peptides (C-terminal and N-terminal extended) as synthetic long peptides that require cross-presentation by monocyte-derived dendritic cells for priming of CD8 T cells. […] Control co-cultures were incubated without a peptide. (C) LRPAP1-specific T cell clones were generated via single cell FACS sort and their specificity to the wild type (S-variant) and the V-variant peptide was assessed using two fluorescently labeled tetramers comprising the short wild type sequence (horizontal axis) or the V-substituted peptide (vertical axis) by flow cytometry. Clone 1A8 was generated and described in a previous study^7, and used here as a reference clone. (D) LRPAP1-specific T cells clones were examined for recognition of TAP-deficient melanoma cell lines and their wild-type counterparts. Clones 2H11, 2B9 and 1A10 are shown. Means and SD are shown from one out of two experiments with similar outcome. Clone 1A8, shown in (E), served as positive control. (E) LRPAP1-specific T cells clones were examined for recognition of TAP-deficient melanoma cell lines and their wild-type counterparts. Clones 4B11, 1C5, and 1A8 are shown. Means and SD are shown from one out of two experiments with similar outcome. Clone 1A8, served as positive control. […]
HLA-A*02:01 positive PBMCs were isolated from buffy-coats from consented donors (Sanquin bloodbank, Amsterdam), using a gradient ficoll layer. […] T cell specificity and reactivity were analyzed by flow cytometry.
Tetramer staining on CD8 T cells was performed by 15 min incubation at 4° C. and washed three times with cold PBS/BSA prior to cell surface staining. […] T cell activation was measured by intracellular IFNγ staining (XMF1.2, Biolegend) using an ICS kit (BioLegend) according to manufactures protocol. moDCs were stained with anti-CD1a (clone HI149, BD), anti-CD14 (clone M5E2, BD), anti-CD80 (clone L307.4, BD), anti-CD83 (clone HB15e, BD), anti-CD86 (clone IT2.2, biolegend), and anti HLA-DR (clone G46-6, BD) antibodies for 30 min at 4° C. and washed three times with cold PBS/BSA. Samples were acquired using a BD LSRFortessa™ flow cytometry system and analyzed using FlowJo software (Tree Star). […]

HLA-A*0201 = HLA-A*0201 (Homo sapiens, UniProt P04439, D140Y/D185E/D98H/E176V/E277Q/G131W/G231S/I119V/I121R/I166T/I218V/L300P/L318F/N151K/N90K/P208A/P217A/Q86G/Q94H/R138H/R169H/T345S); conditions: previous studies; cited from earlier work
[3] = tested on: monocyte-derived dendritic cells; test: Cross-presentation of long peptides by monocyte-derived dendritic cells, read out by LRPAP1-specific CD8 T cell clone cytokine release; assay type: cell-based, human; conditions: positive control on moDC
Protocol: (A) Monocyte-derived dendritic cells were incubated with indicated long peptides comprising the LRPAP1 epitope and co-cultured with a TEIPP-specific CD8 T cell clone 1A8. Non-natural flanking amino acids at the amino-terminus, or natural flanking amino acids at the carboxy-terminus or natural flanking amino acids at both ends were used to elongate the minimal epitope. GM-CSF secretion by the TEIPP-specific T cell clone was used to determine cross-presentation efficiency and pulsing with short peptide ([…]) was used as positive control. (B) Predicted HLA-A2*01 binding affinity scores of LRPAP1 peptides with substituted amino acids at the C-terminal p9 (MHCnet 4.0 algorithm). Binding affinity score was calculated on basis of the IC50 values and ranking percentage (see Table 2 for exact values). (C) Predicted proteasome cleavage activity for four different LRPAP1 peptides using NetCHop 3.1 algorithm. […] (D) Functional T cell avidity was measured as GM-CSF secretion by TEIPP-specific T cell clone stimulated with short peptide—pulsed EBV-JY cells in serial dilutions of the peptides. […] (E) EC50 values were calculated from values obtained in D (wherein EC values represent the dose of peptide resulting in half of the maximal response to that particular peptide variant). […] Cross-presentation of the indicated long peptides was determined by T cell clone. […]

FLGPWPAAV
recognition of TAP-negative versus wild type melanoma by peptide induced polyclonal T cell cultures (TAP KO melanoma cells; 518A2 melanoma cell line): preferred recognition of the TAP-negative tumor line | EC50 [1]: 0.1 µg/mL | fold better T cell activation ([1]; V versus S at the C-terminus): 19 fold | cytokine response compared to the S-peptide ([1]; short peptide variants exogenously pulsed, titrated concentrations): more potent | cytokine responses of TCR-transduced T cells [2]: stronger cytokine responses

RSFLRGLPALLLLLLFLGPWPAAV [24-mer]
expansion of HLA-A*02:01 FLGPWPAAS-specific CD8+ T cells (LRPAP1-specific T cells): able to stimulate the expansion | recognition of TAP KO versus TAP proficient melanoma cell lines by long peptide stimulated T cell cultures (TAP KO melanoma cells; co-cultures with TAP proficient and TAP KO melanoma cell lines): preferentially recognize the TAP KO melanoma cells

LRGLPALLLLLLFLGPWPAAV [21-mer]
expansion of HLA-A*02:01 FLGPWPAAS-specific CD8+ T cells (LRPAP1-specific T cells): able to stimulate the expansion

FLGPWPAAS
binding affinity onto HLA-A*0201 (HLA-A*0201): moderate | EC50 [1]: 1.9 µg/mL | T cell stimulation by exogenous pulsing of short peptide [3]: did stimulate the T cells

FLGPWPAAI
EC50 [1]: 0.7 µg/mL

LPALLLLLLFLGPWPAAV [18-mer]
expansion of HLA-A*02:01 FLGPWPAAS-specific CD8+ T cells (LRPAP1-specific T cells): able to stimulate the expansion

FLGPWPAAL [FLGPWPAAL]
EC50 [1]: 3.7 µg/mL

RRVRSFLRGLPALLLLLLFLGPWPAAV [27-mer]
expansion of HLA-A*02:01 FLGPWPAAS-specific CD8+ T cells (LRPAP1-specific T cells): able to stimulate the expansion
